Common to all, as to assay: DTP human tumour cell line panel, 48 h
Assay [1] concerns ACHN.
Assay [2] relates to HT-29.
The subject of assay [3] is Hs-578T.
Assay [4] concerns IGROV-1.
The subject of assay [5] is K562.
For assay [6], the system named is MCF7.
The subject of assay [7] is MOLT-4.
Assay [8] has as its system NCI-H460.
The subject of assay [9] is OVCAR-3.
The test system of assay [10] is OVCAR-5.
Assay [11] concerns RPMI-8226.
The test system of assay [12] is SF-268.
The subject of assay [13] is SK-MEL-5.
Assay [14] concerns SK-OV-3.
Assay [15] concerns SNB-75.
Assay [16] deals with SW-620.
Assay [17] relates to U-251.
Assay [18] deals with UACC-62.
Assay [19] has as its system CAKI-1.
Assay [20] concerns SK-MEL-2.

For orientation: GI50 means the concentration giving 50% growth inhibition.

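96-well plates; 48 h exposure; 5 concentrations. Endpoints by linear interpolation between flanking doses. Not reached: highest tested concentration assigned. GI50 = concentration required for 50% inhibition of growth.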 Activity calls are given as the source filed them. No stated cut-off is given here; in the data, active = GI50 up to about 1.1 µM and inactive = higher.

With `COc1cc(COC(=O)NC(Cc2cccs2)C(=O)O)c([N+](=O)[O-])cc1OC` (centres undefined), the GI50 in [1], in assay [2], in assay [3], in assay [4], in assay [5] and in assay [6] was > 100 µM (inactive) throughout. Further, the GI50 in assay [7], in [8], in assay [9], in assay [10], in assay [11] and in [12] was > 100 µM (inactive) each time. The GI50 in assay [13] was > 100 µM (inactive); in [14] it was > 100 µM (inactive); in assay [15], 59.2 µM (inactive); in assay [16], > 100 µM (inactive); in assay [17], > 100 µM (inactive); in assay [18], > 100 µM (inactive).

In the case of `CCOC(=O)c1c(C)n(Cc2ccc(Cl)cc2Cl)c2c1cc(O)c1[nH]c3c(c12)CCCC3`, the GI50 in [1] is 25.6 µM (inactive); in [19], 22.8 µM (inactive); in assay [2] it was 24 µM (inactive); in assay [4] it was 24.9 µM (inactive); in [6], 14.6 µM (inactive); in assay [7] it was < 0.01 µM (active). Besides, the GI50 is 28.3 µM (inactive) in assay [8]; 38 µM (inactive) in assay [9]; 36.2 µM (inactive) in assay [10]; 16.6 µM (inactive) in assay [11]; 20.8 µM (inactive) in assay [12]; 24 µM (inactive) in [20]. The GI50 is 20.5 µM (inactive) in assay [13]; 41.2 µM (inactive) in assay [14]; 23.3 µM (inactive) in [15]; 30.7 µM (inactive) in assay [16]; 37.8 µM (inactive) in [17]; 22.5 µM (inactive) in [18].

Take `COc1cc(Nc2cnc3cc(F)c(F)cc3n2)cc(OC)c1`: the GI50 in [1] is > 100 µM (inactive); in [19], > 100 µM (inactive); in assay [2] it was > 100 µM (inactive); in assay [3], 37.7 µM (inactive); in assay [4], > 100 µM (inactive); in [6], > 100 µM (inactive). Further, the GI50 in [7] is > 100 µM (inactive); in assay [8], > 100 µM (inactive); in [9] it was > 100 µM (inactive); in [10], > 100 µM (inactive); in assay [12] it was 43.7 µM (inactive); in assay [20], > 100 µM (inactive). Besides, the GI50 in [13] was > 100 µM (inactive); in assay [14], 21.3 µM (inactive); in [15], 18.9 µM (inactive); in [16], > 100 µM (inactive); in assay [17], 37.9 µM (inactive); in assay [18], 18.2 µM (inactive).

Regarding `CCOP(=O)(OCC)C1C(CO)OC(n2ccc(=O)[nH]c2=O)C1O` (centres undefined), the GI50 in assay [1], in [19], in [2], in assay [3], in assay [4] and in [5] was > 100 µM (inactive) in each case. Moreover, the GI50 in [7] is > 10 µM (inactive); in assay [8] it was > 100 µM (inactive); in assay [9], > 100 µM (inactive); in assay [11], > 100 µM (inactive); in [12], > 100 µM (inactive); in assay [20] it was > 100 µM (inactive). Besides, the GI50 in assay [13] was > 100 µM (inactive); in [15], 35.9 µM (inactive); in assay [16], > 100 µM (inactive); in assay [18], > 100 µM (inactive).

Regarding `CCNC1=C(NC(=O)c2ccc(OC)cc2)C(=O)c2ccccc2C1=O`, the GI50 in [1] is 88.3 µM (inactive); in assay [2], 23.4 µM (inactive); in [3], > 100 µM (inactive); in assay [4], 72.1 µM (inactive); in assay [5], > 100 µM (inactive); in assay [6], 51.8 µM (inactive). Besides, the GI50 in assay [7] was 36.1 µM (inactive); in assay [8], 56.5 µM (inactive); in [9] it was 24 µM (inactive); in assay [10] it was > 100 µM (inactive); in assay [11] it was > 100 µM (inactive); in assay [12] it was > 100 µM (inactive). The GI50 in [13] was 34.7 µM (inactive); in assay [14], > 100 µM (inactive); in assay [15], > 100 µM (inactive); in assay [16] it was 44 µM (inactive); in assay [17], > 100 µM (inactive); in [18], 39.4 µM (inactive).

In the case of `Cc1c(S(=O)(=O)N/C(N)=N/c2ccc(Cl)cc2)sc2ccc(Cl)cc12`, the GI50 in assay [1] was 17 µM (inactive); in assay [2], 19.8 µM (inactive); in assay [3], 21.7 µM (inactive); in assay [4], 16.1 µM (inactive); in assay [5], 36.2 µM (inactive); in [6], 17.8 µM (inactive). The GI50 was 28.6 µM (inactive) in [7]; 16.9 µM (inactive) in assay [8]; 18.2 µM (inactive) in assay [9]; 18.8 µM (inactive) in assay [10]; 33.7 µM (inactive) in [11]; 17 µM (inactive) in assay [12]. In addition, the GI50 is 17.2 µM (inactive) in [20]; 33.6 µM (inactive) in [13]; 26.1 µM (inactive) in assay [14]; 19.6 µM (inactive) in assay [15]; 22 µM (inactive) in assay [16]; 16.3 µM (inactive) in [17]. Besides, the GI50 in [18] is 16.5 µM (inactive).

Turning to `CSC1=C(C(=O)N(COCC[Si](C)(C)C)c2ccccc2Br)CCC(C(C)(C)C)C1` (centres undefined), the GI50 in assay [1] is 16.4 µM (inactive); in [19] it was 1.83 µM (inactive); in assay [2], 15 µM (inactive); in assay [4] it was 23.2 µM (inactive); in assay [5], 8.28 µM (inactive); in [6], 10.6 µM (inactive). Moreover, the GI50 in assay [7] is 5.87 µM (inactive); in [8] it was 13.6 µM (inactive); in [9], 10.7 µM (inactive); in [10], 14.4 µM (inactive); in assay [11] it was 10.6 µM (inactive); in assay [20], 14 µM (inactive). Also, the GI50 in assay [13] was 12.8 µM (inactive); in assay [14], 31.9 µM (inactive); in assay [15] it was 20.6 µM (inactive); in [16], 13.8 µM (inactive); in assay [17] it was 11.6 µM (inactive); in [18] it was 10.9 µM (inactive).

For the compound `COc1cc(C2NCCC(c3ccccc3)(c3ccccc3)N2)cc(OC)c1OC` (centres undefined), the GI50 in assay [1] is 61.2 µM (inactive); in assay [2], 4.66 µM (inactive); in [3], 26.1 µM (inactive); in assay [4], 27.2 µM (inactive); in [6], 20.1 µM (inactive); in assay [7] it was > 10 µM (inactive). Besides, the GI50 is 9.59 µM (inactive) in [8]; 7.36 µM (inactive) in [11]; 52.4 µM (inactive) in assay [12]; 17.3 µM (inactive) in assay [13]; 78 µM (inactive) in assay [14]; 41.7 µM (inactive) in [15]. The GI50 was 19 µM (inactive) in assay [16], 32.9 µM (inactive) in assay [17] and 25.2 µM (inactive) in assay [18].

As for `Oc1cnnc2nc3ccccc3n12`, the GI50 in assay [1], in [19], in assay [2], in assay [3], in assay [4] and in assay [6] was > 100 µM (inactive) each time. Besides, the GI50 in [7], in assay [8], in assay [10], in [12], in [20] and in assay [13] was > 100 µM (inactive) each time. For the same compound, the GI50 in assay [15], in assay [16] and in assay [17] was > 100 µM (inactive) each time.

As for `NC(=O)c1cc(-c2ccc(-n3ccnc3)cc2)nnc1O`, the GI50 in assay [1] is > 100 µM (inactive); in [19], > 100 µM (inactive); in [3], > 100 µM (inactive); in assay [4] it was > 100 µM (inactive); in assay [6] it was 67.6 µM (inactive); in [7], > 100 µM (inactive). Moreover, the GI50 in assay [8], in [10], in assay [11], in [12], in assay [13] and in assay [14] was > 100 µM (inactive) each time. Moreover, the GI50 in [15], in assay [16], in assay [17] and in [18] was > 100 µM (inactive) each time.

Regarding `Cc1ccc(/N=N/c2c(O)c(C(=O)Nc3ccccc3)cc3ccccc23)c([N+](=O)[O-])c1`, the GI50 in [1], in assay [19], in assay [2], in [3], in assay [4] and in assay [5] was > 100 µM (inactive) each time. Further, the GI50 in assay [7], in [9], in assay [10], in assay [11], in assay [12] and in [20] was > 100 µM (inactive) throughout. Also, the GI50 in [13], in [14], in assay [15], in [16], in assay [17] and in [18] was > 100 µM (inactive) each time.

These data come from ChEMBL document CHEMBL1201862, “PubChem BioAssay data set” (2004).
